# Key:
# [1] = target: B. suis histidinol dehydrogenase (Brucella suis biovar 1, UniProt Q8G2R2); assay: biochemical; assay type: biochemical
# [2] = test system: B. suis; assay: microbe, parasite or virus in culture; assay type: cell-based, Brucella suis; conditions: for inhibition at 50 µM / inhibition at 100 µM: Brucella suis, 168 h, read-out: Effects on the growth of B. suis (%) (inhibition of bacterial growth)
# [3] = test system: B. suis in the macrophage; assay type: cell-based, Brucella suis
# Chain of B. suis histidinol dehydrogenase (Q8G2R2 whole entry, looked up): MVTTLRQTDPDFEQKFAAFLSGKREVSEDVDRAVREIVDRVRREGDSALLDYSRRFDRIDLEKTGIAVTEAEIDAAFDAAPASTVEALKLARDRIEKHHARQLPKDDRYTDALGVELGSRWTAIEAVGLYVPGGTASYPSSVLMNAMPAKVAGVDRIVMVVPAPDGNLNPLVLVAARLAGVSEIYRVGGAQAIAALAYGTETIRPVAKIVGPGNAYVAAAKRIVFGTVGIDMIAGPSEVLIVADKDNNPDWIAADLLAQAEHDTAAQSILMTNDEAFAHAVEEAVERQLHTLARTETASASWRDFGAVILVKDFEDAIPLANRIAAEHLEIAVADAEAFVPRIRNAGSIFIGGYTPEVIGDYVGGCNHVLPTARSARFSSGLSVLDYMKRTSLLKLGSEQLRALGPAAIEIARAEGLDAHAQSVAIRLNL
Structure (SMILES),IC50 [1],inhibition at 50 µM [2],inhibition at 100 µM [2],further results
"N[C@@H](Cc1c[nH]cn1)C(=O)Cc1ccc(C#Cc2ccccc2)cc1 (hydrate or solvate) [Compound 3a, (3S)-3-amino-4-(1H-imidazol-4-yl)-1-[4-(phenylethynyl)phenyl] butan-2-one dihydrochlorhydrate]",–,–,–,melting point: 194 °C (dec.)
"Cc1ccc(C#Cc2ccc(CC(=O)[C@@H](N)Cc3c[nH]cn3)cc2)cc1 (hydrate or solvate) [Compound 3b, (3S)-3-amino-4-(1H-imidazol-4-yl)-1-{4-[(4-methylphenyl)ethynyl]phenyl}butan-2-one dihydrochlorhydrate]",–,–,–,melting point: 181 °C (dec.)
"CCCCCc1ccc(C#Cc2ccc(CC(=O)[C@@H](N)Cc3c[nH]cn3)cc2)cc1 (hydrate or solvate) [Compound 3d, (3S)-3-amino-4-(1H-imidazol-4-yl)-1-{4-[(4-pentylphenyl)ethynyl]phenyl}butan-2-one dihydrochlorhydrate]",–,–,–,melting point: 184 °C (dec.)
"Cc1ccc(-c2ccc(CC(=O)[C@@H](N)Cc3c[nH]cn3)cc2)cc1 [Compound 2a, (3S)-3-amino-4-(1H-imidazol-4-yl)-1-(4′-methylbiphenyl-4-yl)butan-2-one dihydrochlorhydrate]",30 nM,30%,40%,–
"CCCCc1ccc(-c2ccc(CC(=O)[C@@H](N)Cc3c[nH]cn3)cc2)cc1 [Compound 2b, (3S)-3-amino-1-(4′-butylbiphenyl-4-yl)-4-(1H-imidazol-4-yl) butan-2-one dihydrochlorhydrate]",40 nM,50%,60%,–
"COc1ccc(-c2ccc(CC(=O)[C@@H](N)Cc3c[nH]cn3)cc2)cc1 [Compound 2c, (3S)-3-amino-4-(1H-imidazol-4-yl)-1-(4′-methoxybiphenyl-4-yl)butan-2-one dihydrochlorhydrate]",20 nM,30%,60%,–
"N[C@@H](Cc1c[nH]cn1)C(=O)Cc1ccc(-c2ccc(C(F)(F)F)cc2)cc1 [Compound 2d, (3S)-3-amino-4-(1H-imidazol-4-yl)-1-[4′-(trifluoromethyl)biphenyl-4-yl]butan-2-one dihydrochlorhydrate]",30 nM,70%,90%,–
"N[C@@H](Cc1c[nH]cn1)C(=O)Cc1ccc(-c2ccc(Oc3ccccc3)cc2)cc1 [Compound 2f, (3S)-3-amino-4-(1H-imidazol-4-yl)-1-(4′-phenoxybiphenyl-4-yl)butan-2-one dihydrochlorhydrate]",70 nM,70%,90%,–
"N[C@@H](Cc1c[nH]cn1)C(=O)Cc1ccc(-c2ccc3ccccc3c2)cc1 [Compound 2h, (3S)-3-amino-4-(1H-imidazol-4-yl)-1-[4-(2-naphthhyl)phenyl] butan-2-one dihydrochlorhydrate]",30 nM,100%,100%,Inhibition of the growth of the bacteria in liquid medium [2]: completely inhibit
"N[C@@H](Cc1c[nH]cn1)C(=O)Cc1ccc(CCc2ccccc2)cc1 [Compound 2i, (3S)-3-amino-4-(1H-imidazol-4-yl)-1-[4-(2-phenylethyl)phenyl] butan-2-one dihydrochlorhydrate]",13 nM,–,–,–
"N[C@@H](Cc1c[nH]cn1)C(=O)Cc1ccc(/C=C/c2ccccc2)cc1 [Compound 2j, (3S)-3-amino-4-(1H-imidazol-4-yl)-1-{4-[(E)-2-phenylvinyl]phenyl}butan-2-one dihydrochlorhydrate]",25 nM,–,–,–
"Cc1ccc(/C=C/c2ccc(CC(=O)[C@@H](N)Cc3c[nH]cn3)cc2)cc1 [Compound 2k, (3S)-3-amino-4-(1H-imidazol-4-yl)-1-{4-[(E)-2-(4-methylphenyl)vinyl]phenyl}butan-2-one dihydrochlorhydrate]",40 nM,100%,100%,Inhibition of the growth of the bacteria in liquid medium [2]: completely inhibit
"N[C@@H](Cc1c[nH]cn1)C(=O)Cc1ccc(/C=C/c2ccc(C(F)(F)F)cc2)cc1 [Compound 2l, (3S)-3-amino-4-(1H-imidazol-4-yl)-1-(4-{(E)-2-[4-(trifluoromethyl)phenyl]vinyl}phenyl) butan-2-one dihydrochlorhydrate]",65 nM,–,–,–
"N[C@@H](Cc1c[nH]cn1)C(=O)Cc1ccc(/C=C/Cc2ccccc2)cc1 [Compound 2m, (3S)-3-amino-4-(1H-imidazol-4-yl)-1-{4-[(1E)-3-phenylprop-1-en-1-yl]phenyl}butan-2-one dihydrochlorhydrate]",30 nM,–,–,–
"N[C@@H](Cc1c[nH]cn1)C(=O)Cc1ccc(C#Cc2ccccc2)cc1 [Compound 3a, (3S)-3-amino-4-(1H-imidazol-4-yl)-1-[4-(phenylethynyl)phenyl] butan-2-one dihydrochlorhydrate]",3 nM,100%,100%,Affinity for HDH [1]: significant affinity; Inhibition of the growth of the bacteria in liquid medium [2]: completely inhibit; Inhibition of the intracellular proliferation of the bacteria in the macrophage [3]: approximately 1000 times
"Cc1ccc(C#Cc2ccc(CC(=O)[C@@H](N)Cc3c[nH]cn3)cc2)cc1 [Compound 3b, (3S)-3-amino-4-(1H-imidazol-4-yl)-1-{4-[(4-methylphenyl)ethynyl]phenyl}butan-2-one dihydrochlorhydrate]",40 nM,–,–,–
"CC(C)(C)c1ccc(C#Cc2ccc(CC(=O)[C@@H](N)Cc3c[nH]cn3)cc2)cc1 [Compound 3c, (3S)-3-amino-1-{4-[(4-tert-butylphenyl)ethynyl]phenyl}-4-(1H-imidazol-4-yl)butan-2-one dihydrochlorhydrate]",65 nM,30%,30%,–
"CCCCCc1ccc(C#Cc2ccc(CC(=O)[C@@H](N)Cc3c[nH]cn3)cc2)cc1 [Compound 3d, (3S)-3-amino-4-(1H-imidazol-4-yl)-1-{4-[(4-pentylphenyl)ethynyl]phenyl}butan-2-one dihydrochlorhydrate]",8.5 nM,30%,30%,–
